How the values were obtained:
[1] = Cytotoxicity against mouse RAW264.7 cells assessed as cell survival rate up to 25 uM after 18 hrs by MTT assay relative to control; type: cell-based; conditions: read-out: Survival
RAW264.7 [2] = assay: Antiinflammatory activity against mouse RAW264.7 cells assessed as inhibition of LPS-induced NO production at after 18 hrs by Griess method relative to control; type: functional, cell-based; conditions: RAW264.7, 18 h
RAW264.7 [3] = assay: Antiinflammatory activity against mouse RAW264.7 cells assessed as inhibition of LPS-induced NO production at 25 uM after 18 hrs by Griess method relative to control; type: functional; conditions: RAW264.7, 18 h
RAW264.7 [4] = assay: Cytotoxicity against mouse RAW264.7 cells assessed as reduction in cell survival rate after 18 hrs by MTT assay relative to control; type: cell-based; conditions: RAW264.7, 18 h

SMILES | viability at 18 h [1] [%] | IC50 (RAW264.7 [2]) [µM] | inhibition at 25 µM (RAW264.7 [3]) [%] | IC50 (RAW264.7 [4]) [µM]
N=C(N)NN [PIMAGEDINE] | 100 | 8.68 | 83.8 | –
CCc1ccc(C(=O)O[C@H]2CC3C(=C2C)[C@H]2OC(=O)[C@@H](C)[C@@H]2CC[C@@]3(C)O)cc1 (stereo partly specified) | 85.2 | – | 26.3 | –
CC1=C2C(C[C@@H]1OC(=O)c1ccccn1)[C@](C)(O)CC[C@H]1[C@H](C)C(=O)O[C@H]21 (stereo partly specified) | 100 | – | 0 | –
CC1=C2C(C[C@@H]1OC(=O)c1ccc3ncccc3c1)[C@](C)(O)CC[C@H]1[C@H](C)C(=O)O[C@H]21 (stereo partly specified) | 100 | – | 23.2 | –
CC1=C2C(C[C@@H]1OC(=O)c1ccc3ccccc3c1)[C@](C)(O)CC[C@H]1[C@H](C)C(=O)O[C@H]21 (stereo partly specified) | 100 | 25.7 | 68.8 | 89.4
CC(=O)O[C@]1(C)CC[C@H]2[C@H](C)C(=O)O[C@@H]2C2=C(C)C(=O)CC21 (stereo partly specified) | 100 | – | 6.9 | –
CCOc1ccc(/C=C/C(=O)O[C@H]2CC3C(=C2C)[C@H]2OC(=O)[C@@H](C)[C@@H]2CC[C@@]3(C)O)cc1 (stereo partly specified) | 35.6 | – | 26.9 | –
COc1ccc(C(=O)O[C@H]2CC3C(=C2C)[C@H]2OC(=O)[C@@H](C)[C@@H]2CC[C@@]3(C)O)cc1 (stereo partly specified) | 98 | – | 6.6 | –
CSc1ccc(/C=C/C(=O)O[C@H]2CC3C(=C2C)[C@H]2OC(=O)[C@@H](C)[C@@H]2CC[C@@]3(C)O)cc1 (stereo partly specified) | 100 | 27.2 | 67.4 | > 100
CC1=C2C(C[C@@H]1OC(=O)/C=C/c1ccc(N(C)C)cc1)[C@](C)(O)CC[C@H]1[C@H](C)C(=O)O[C@H]21 (stereo partly specified) | 100 | – | 44.5 | –
CC1=C2C(C[C@@H]1OC(=O)/C=C/c1ccc(C#N)cc1)[C@](C)(O)CC[C@H]1[C@H](C)C(=O)O[C@H]21 (stereo partly specified) | 100 | – | 31.4 | –
CCCCc1ccc(C(=O)O[C@H]2CC3C(=C2C)[C@H]2OC(=O)[C@@H](C)[C@@H]2CC[C@@]3(C)O)cc1 (stereo partly specified) | 72.6 | – | 33.2 | –
CC1=C2C(C[C@@H]1OC(=O)/C=C/c1ccc(Cl)cc1)[C@](C)(O)CC[C@H]1[C@H](C)C(=O)O[C@H]21 (stereo partly specified) | 100 | 22.3 | 82 | 59.2
CCCCCc1ccc(C(=O)O[C@H]2CC3C(=C2C)[C@H]2OC(=O)[C@@H](C)[C@@H]2CC[C@@]3(C)O)cc1 (stereo partly specified) | 79.3 | – | 29.8 | –
CCCOc1ccc(/C=C/C(=O)O[C@H]2CC3C(=C2C)[C@H]2OC(=O)[C@@H](C)[C@@H]2CC[C@@]3(C)O)cc1 (stereo partly specified) | 43.1 | – | 19.3 | –
CC1=C2C(C[C@@H]1OC(=O)c1ccc(C#N)cc1)[C@](C)(O)CC[C@H]1[C@H](C)C(=O)O[C@H]21 (stereo partly specified) | 100 | – | 6.6 | –
CC1=C2C(C[C@@H]1OC(=O)c1cccs1)[C@](C)(O)CC[C@H]1[C@H](C)C(=O)O[C@H]21 (stereo partly specified) | 100 | – | 0 | –
CC1=C2C(C[C@@H]1O)[C@](C)(O)CC[C@H]1[C@H](C)C(=O)O[C@H]21 (stereo partly specified) | 100 | – | 0 | –
CC1=C2C(C[C@@H]1OC(=O)/C=C/c1ccc(C(F)(F)F)cc1)[C@](C)(O)CC[C@H]1[C@H](C)C(=O)O[C@H]21 (stereo partly specified) | 100 | 17.4 | 75.9 | 54.9
CC1=C2C(C[C@@H]1OC(=O)c1ccc(Br)cc1)[C@](C)(O)CC[C@H]1[C@H](C)C(=O)O[C@H]21 (stereo partly specified) | 98.1 | – | 28.1 | –
CC1=C2C(C[C@@H]1OC(=O)c1ccc(Cl)cc1)[C@](C)(O)CC[C@H]1[C@H](C)C(=O)O[C@H]21 (stereo partly specified) | 100 | – | 19.6 | –

SMILES | viability at 18 h [1] [%] | IC50 (RAW264.7 [2]) [µM] | inhibition at 25 µM (RAW264.7 [3]) [%] | IC50 (RAW264.7 [4]) [µM]
CC1=C2C(C[C@@H]1OC(=O)c1cccc3ccccc13)[C@](C)(O)CC[C@H]1[C@H](C)C(=O)O[C@H]21 (stereo partly specified) | 67.4 | 6.98 | 79.6 | 7.52
CC1=C2C(C[C@@H]1OC(=O)c1ccc(C)cc1)[C@](C)(O)CC[C@H]1[C@H](C)C(=O)O[C@H]21 (stereo partly specified) | 100 | – | 21.2 | –
CC1=C2C(C[C@@H]1OC(=O)c1ccc(F)cc1)[C@](C)(O)CC[C@H]1[C@H](C)C(=O)O[C@H]21 (stereo partly specified) | 100 | – | 19.4 | –
CC1=C2C(CC1=O)[C@](C)(O)CC[C@H]1[C@H](C)C(=O)O[C@H]21 (stereo partly specified) | 100 | – | 0 | –
CC1=C2C(C[C@@H]1OC(=O)c1ccco1)[C@](C)(O)CC[C@H]1[C@H](C)C(=O)O[C@H]21 (stereo partly specified) | 100 | – | 2.2 | –
CC1=C2C(C[C@@H]1OC(=O)c1ccc(C(C)C)cc1)[C@](C)(O)CC[C@H]1[C@H](C)C(=O)O[C@H]21 (stereo partly specified) | 74.7 | – | 53.3 | –
CC1=C2C(C[C@@H]1OC(=O)/C=C/c1ccc(C)cc1)[C@](C)(O)CC[C@H]1[C@H](C)C(=O)O[C@H]21 (stereo partly specified) | 100 | 29 | 58.8 | 76.5
CC(=O)O[C@]1(C)CC[C@H]2[C@H](C)C(=O)O[C@@H]2C2=C(C)[C@@H](O)CC21 (stereo partly specified) | 100 | – | 0 | –
CC1=C2C(C[C@@H]1OC(=O)c1ccncc1)[C@](C)(O)CC[C@H]1[C@H](C)C(=O)O[C@H]21 (stereo partly specified) | 100 | – | 2 | –
CC1=C2C(C[C@@H]1OC(=O)c1cccnc1)[C@](C)(O)CC[C@H]1[C@H](C)C(=O)O[C@H]21 (stereo partly specified) | 86.9 | – | 6.1 | –
CC1=C2C(C[C@@H]1OC(=O)c1ccc([N+](=O)[O-])cc1)[C@](C)(O)CC[C@H]1[C@H](C)C(=O)O[C@H]21 (stereo partly specified) | 100 | – | 1.8 | –
CC1=C2C(C[C@@H]1OC(=O)c1ccc(C(C)(C)C)cc1)[C@](C)(O)CC[C@H]1[C@H](C)C(=O)O[C@H]21 (stereo partly specified) | 52.1 | 14.8 | 76.3 | 29.1
COc1ccc(/C=C/C(=O)O[C@H]2CC3C(=C2C)[C@H]2OC(=O)[C@@H](C)[C@@H]2CC[C@@]3(C)O)cc1 (stereo partly specified) | 100 | – | 19.3 | –
CC1=C2C(C[C@@H]1OC(=O)/C=C/c1ccc(F)cc1)[C@](C)(O)CC[C@H]1[C@H](C)C(=O)O[C@H]21 (stereo partly specified) | 100 | – | 31.6 | –
CC1=C2C(C[C@@H]1OC(=O)c1ccc(C(F)(F)F)cc1)[C@](C)(O)CC[C@H]1[C@H](C)C(=O)O[C@H]21 (stereo partly specified) | 100 | – | 20.4 | –
CC1=C2C(C[C@@H]1OC(=O)/C=C/c1ccc(Br)cc1)[C@](C)(O)CC[C@H]1[C@H](C)C(=O)O[C@H]21 (stereo partly specified) | 97.8 | 18.3 | 85.2 | 60.2
CC1=C2C(C[C@@H]1OC(=O)c1ccc(OC(F)(F)F)cc1)[C@](C)(O)CC[C@H]1[C@H](C)C(=O)O[C@H]21 (stereo partly specified) | 97.5 | – | 30.6 | –
CC1=C2C(C[C@@H]1OC(=O)/C=C/c1ccc([N+](=O)[O-])cc1)[C@](C)(O)CC[C@H]1[C@H](C)C(=O)O[C@H]21 (stereo partly specified) | 92.5 | – | 45 | –
CC1=C2C(C[C@@H]1OC(=O)c1ccsc1)[C@](C)(O)CC[C@H]1[C@H](C)C(=O)O[C@H]21 (stereo partly specified) | 93.9 | – | 6.7 | –
CCCc1ccc(C(=O)O[C@H]2CC3C(=C2C)[C@H]2OC(=O)[C@@H](C)[C@@H]2CC[C@@]3(C)O)cc1 (stereo partly specified) | 73.4 | – | 30.6 | –
CC1=C2C(C[C@@H]1OC(=O)c1ccc(I)cc1)[C@](C)(O)CC[C@H]1[C@H](C)C(=O)O[C@H]21 (stereo partly specified) | 93 | – | 46.5 | –

Reference: ChEMBL document CHEMBL3286312, “Synthesis and structure-activity relationships of guaiane-type sesquiterpene lactone derivatives with respect to inhibiting NO production in lipopolysaccharide-induced RAW 264.7 macrophages” (Eur J Med Chem, 2014)
